Results: the supplement of paper PMC8671470

What was measured:
Conditions in all cases: 72 h
BV-173 [1] = tested on: BV-173
Method in brief: (§1)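 The IC50 was read from log-logistic dose–response fits. Fifteen myeloid leukaemia lines were exposed for 72 h at 37 °C with 5% CO2 to five tenfold doses from 1 to 10,000 nM in duplicate. ATP luminescence, normalised to vehicle and to a 10 µM positive control, was fitted with four parameters.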

HEL [2] = tested on: HEL
Method in brief: as §1

HL-60 [3] = tested on: HL-60
Method in brief: as §1

K-562 [4] = tested on: K-562
Method in brief: as §1

KCL-22 [5] = tested on: KCL-22
Method in brief: as §1

KG-1 [6] = tested on: KG-1
Method in brief: as §1

KU-812 [7] = tested on: KU-812
Method in brief: as §1

LAMA-84 [8] = tested on: LAMA-84
Method in brief: as §1

ML-2 [9] = tested on: ML-2
Method in brief: as §1

MOLM-13 [10] = tested on: MOLM-13
Method in brief: as §1

MV4-11 [11] = tested on: MV4-11
Method in brief: as §1

Mono-Mac-6 [12] = tested on: Mono-Mac-6
Method in brief: as §1

NOMO-1 [13] = tested on: NOMO-1
Method in brief: as §1

SHI-1 [14] = tested on: SHI-1
Method in brief: as §1

THP-1 [15] = tested on: THP-1
Method in brief: as §1

BV-173 [16] = assay: cell viability (% survival relative to DMSO control, bortezomib = 0%); higher = less cytotoxic
Method in brief: (§2)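 Fifteen myeloid leukaemia cell lines (10 AML, 5 CML) were seeded at a density titrated to the linear growth range. They went into 384-well plates with compounds pre-printed at 1, 10, 100, 1000 or 10000 nM in duplicate. After 72 h at 37 °C with 5% CO2, viability was read by CellTiter-Glo luminescence. Values are percent survival, with vehicle set to 100% and a 10 µM positive control to 0%, averaged over the duplicates.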

HEL [17] = assay: as above
Method in brief: as §2

HL-60 [18] = assay: as above
Method in brief: as §2

K-562 [19] = assay: as above
Method in brief: as §2

KCL-22 [20] = assay: as above
Method in brief: as §2

KG-1 [21] = assay: as above
Method in brief: as §2

KU-812 [22] = assay: as above
Method in brief: as §2

LAMA-84 [23] = assay: as above
Method in brief: as §2

ML-2 [24] = assay: as above
Method in brief: as §2

MOLM-13 [25] = assay: as above
Method in brief: as §2

MV4-11 [26] = assay: as above
Method in brief: as §2

Mono-Mac-6 [27] = assay: as above
Method in brief: as §2

NOMO-1 [28] = assay: as above
Method in brief: as §2

SHI-1 [29] = assay: as above
Method in brief: as §2

THP-1 [30] = assay: as above
Method in brief: as §2

N[C@@H](CCC(=O)N[C@@H](CS)C(=O)NCC(=O)O)C(=O)O [Glutathione]
Conditions	IC50 (cell viability) [µM]
BV-173 [1]	> 10
HEL [2]	> 10
HL-60 [3]	> 10
K-562 [4]	> 10
KCL-22 [5]	> 10
KG-1 [6]	> 10
KU-812 [7]	> 10
LAMA-84 [8]	> 10
ML-2 [9]	> 10
MOLM-13 [10]	> 10
MV4-11 [11]	> 10
Mono-Mac-6 [12]	> 10
NOMO-1 [13]	> 10
SHI-1 [14]	> 10
THP-1 [15]	> 10

cell viability [%]
Conditions	1 nM	10 nM	100 nM	1000 nM	10000 nM
BV-173 [16]	102	99.4	94.4	101	91.9
HEL [17]	106	95.7	96.1	94.2	111
HL-60 [18]	77.8	94.8	98.7	70.5	105
K-562 [19]	94.4	106	92.2	93.6	98.7
KCL-22 [20]	101	110	91.4	95.6	107
KG-1 [21]	106	101	111	95.7	110
KU-812 [22]	105	110	108	96	96.5
LAMA-84 [23]	100	98.1	97.6	98.1	104
ML-2 [24]	93.2	106	103	93	104
MOLM-13 [25]	111	114	91.4	92.5	92.1
MV4-11 [26]	106	99.2	107	80.9	106
Mono-Mac-6 [27]	96.2	89.5	84.9	103	89.9
NOMO-1 [28]	98.9	105	91.1	94.2	106
SHI-1 [29]	99.3	106	106	97.5	95.3
THP-1 [30]	100	102	95.4	105	105

CCCCCCCCCCCCCCOc1ccc(C(=O)O)o1 [TOFA]
Conditions	IC50 (cell viability) [µM]
BV-173 [1]	> 10
HEL [2]	> 10
HL-60 [3]	> 10
K-562 [4]	> 10
KCL-22 [5]	8.33
KG-1 [6]	> 10
KU-812 [7]	> 10
LAMA-84 [8]	> 10
ML-2 [9]	> 10
MOLM-13 [10]	> 10
MV4-11 [11]	> 10
Mono-Mac-6 [12]	> 10
NOMO-1 [13]	> 10
SHI-1 [14]	> 10
THP-1 [15]	> 10

cell viability [%]
Conditions	1 nM	10 nM	100 nM	1000 nM	10000 nM
BV-173 [16]	110	104	101	90.1	103
HEL [17]	108	91.8	103	103	83.8
HL-60 [18]	75.1	83.8	108	109	85.4
K-562 [19]	100	93.4	92	108	114
KCL-22 [20]	94.2	90.6	108	107	40.4
KG-1 [21]	95.8	103	116	97.5	93.2
KU-812 [22]	109	95	95.6	81.5	82.5
LAMA-84 [23]	106	105	102	103	90.1
ML-2 [24]	101	92.8	110	101	108
MOLM-13 [25]	102	91.7	98.8	82.7	87
MV4-11 [26]	87.6	87.9	104	98.4	96.2
Mono-Mac-6 [27]	113	94.5	99.8	94.2	105
NOMO-1 [28]	105	101	99.3	99	109
SHI-1 [29]	113	85.6	110	98.9	89.9
THP-1 [30]	98.2	101	97.9	86.4	88.8

C[C@H]1O[C@H](O[C@H]2[C@H](O)[C@@H](O)[C@@H](O[C@H]3[C@H](O)[C@@H](O)C(O)O[C@@H]3CO)O[C@@H]2CO)[C@H](O)[C@@H](O)[C@@H]1N[C@H]1C=C(CO)[C@@H](O)[C@H](O)[C@H]1O (mixture of isomers) [Acarbose]
Conditions	IC50 (cell viability) [µM]
BV-173 [1]	> 10
HEL [2]	> 10
HL-60 [3]	> 10
K-562 [4]	> 10
KCL-22 [5]	> 10
KG-1 [6]	> 10
KU-812 [7]	> 10
LAMA-84 [8]	> 10
ML-2 [9]	> 10
MOLM-13 [10]	> 10
MV4-11 [11]	> 10
Mono-Mac-6 [12]	> 10
NOMO-1 [13]	> 10
SHI-1 [14]	> 10
THP-1 [15]	> 10

cell viability [%]
Conditions	1 nM	10 nM	100 nM	1000 nM	10000 nM
BV-173 [16]	95.6	99.7	110	103	83.4
HEL [17]	117	111	114	88.8	98.8
HL-60 [18]	125	111	122	99.1	106
K-562 [19]	111	131	88.1	94.9	98.8
KCL-22 [20]	116	117	112	86.5	97.2
KG-1 [21]	99.1	107	93.2	105	95.7
KU-812 [22]	91.8	94.5	107	114	93.9
LAMA-84 [23]	93.4	84.7	108	92.7	93.4
ML-2 [24]	104	102	103	94.8	95.8
MOLM-13 [25]	133	86.7	106	95.8	94.9
MV4-11 [26]	108	73	111	89.1	94.9
Mono-Mac-6 [27]	101	95.6	102	111	87
NOMO-1 [28]	98.1	97.7	103	96.1	88.4
SHI-1 [29]	116	120	99.8	104	97.7
THP-1 [30]	87.6	107	96.9	95.1	97.1

O=C(Cc1cccc(OC(F)(F)F)c1)Nc1ccc(CCCCc2nnc(NC(=O)Cc3ccccn3)s2)nn1 [CB-839]
Conditions	IC50 (cell viability) [µM]
BV-173 [1]	0.118
HEL [2]	> 10
HL-60 [3]	0.637
K-562 [4]	> 10
KCL-22 [5]	0.822
KG-1 [6]	0.638
KU-812 [7]	> 10
LAMA-84 [8]	9.93
ML-2 [9]	> 10
MOLM-13 [10]	> 10
MV4-11 [11]	0.619
Mono-Mac-6 [12]	> 10
NOMO-1 [13]	> 10
SHI-1 [14]	> 10
THP-1 [15]	> 10

cell viability [%]
Conditions	1 nM	10 nM	100 nM	1000 nM	10000 nM
BV-173 [16]	133	82.2	53.7	59.8	18.5
HEL [17]	117	85.6	99.3	73.7	64.8
HL-60 [18]	73.4	114	85.6	40.6	50.2
K-562 [19]	145	105	85.3	86	77.7
KCL-22 [20]	116	90.4	79.5	55.4	43.8
KG-1 [21]	98.4	81.7	80.1	43	45.4
KU-812 [22]	101	81.8	72.2	67.2	66.4
LAMA-84 [23]	116	85.8	66.5	66.3	58.4
ML-2 [24]	111	89.8	94.3	91.4	89.9
MOLM-13 [25]	123	102	116	59.8	73.7
MV4-11 [26]	108	86	71.2	48.1	51.2
Mono-Mac-6 [27]	102	84.5	85	78.3	82
NOMO-1 [28]	103	91.4	76.5	79.2	68.2
SHI-1 [29]	109	103	99.7	74.9	68.4
THP-1 [30]	99.4	96.7	88.9	82.9	83.7

Cn1cc(C[C@@H](N)C(=O)O)c2ccccc21 [Indoximod]
Conditions	IC50 (cell viability) [µM]
BV-173 [1]	> 10
HEL [2]	> 10
HL-60 [3]	> 10
K-562 [4]	> 10
KCL-22 [5]	> 10
KG-1 [6]	> 10
KU-812 [7]	> 10
LAMA-84 [8]	> 10
ML-2 [9]	> 10
MOLM-13 [10]	> 10
MV4-11 [11]	> 10
Mono-Mac-6 [12]	> 10
NOMO-1 [13]	> 10
SHI-1 [14]	> 10
THP-1 [15]	> 10

cell viability [%]
Conditions	1 nM	10 nM	100 nM	1000 nM	10000 nM
BV-173 [16]	134	95.3	90.6	84.7	100
HEL [17]	110	97.1	85.8	120	100
HL-60 [18]	102	90.2	116	97.3	106
K-562 [19]	103	108	79.8	87.5	89.9
KCL-22 [20]	109	86.8	82.5	106	101
KG-1 [21]	107	99	102	99.2	97.6
KU-812 [22]	93.8	101	90.9	105	95.6
LAMA-84 [23]	94.5	97.2	91.1	113	94.7
ML-2 [24]	97.8	97.2	100	106	92.9
MOLM-13 [25]	104	97.7	81.3	86.8	76.7
MV4-11 [26]	93.3	88.2	103	85.5	94.9
Mono-Mac-6 [27]	104	102	92.9	97.7	91.8
NOMO-1 [28]	112	96.2	95.6	117	99
SHI-1 [29]	96	101	102	107	104
THP-1 [30]	99.3	96.4	102	94.8	98.4
